For 26 compounds, IC50 results are on record in patent publication US20250179083A1, “TRICYCLIC TRIAZOLO COMPOUNDS AS DGK INHIBITORS” (Incyte Corporation, priority 2023, published 2025).

pIC50: −log10 of the molar value.

One experiment has as its target T1, DGKα (Homo sapiens, UniProt P23743).
T1 construct: His; purchased Signal Chem D21-10BH
In words: In vitro DGKα inhibition assay (ADP-Glo). In kind it is biochemical. The settings on record: His-tagged human recombinant DGKα 0.1 nM, 50 μM ATP, 20 μM DLG, 90 minute incubation. In a few lines:
(§1)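 His-tagged human DGKα (0.1 nM, 50 μM ATP) or DGKζ (0.4 nM, 30 μM ATP), each with 20 μM DLG lipid substrate, in Tris pH 7.5 buffer with Mg2+, Ca2+, CHAPS.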
For orientation: ADP-Glo first removes unused ATP, then detects ADP through luciferase.

The next experiment addresses T2, DGKζ (Homo sapiens, UniProt Q13574).
T2 construct: His; purchased Signal Chem D30-10H
In words: In vitro DGKζ inhibition assay (ADP-Glo). The format is biochemical. The settings on record: His-tagged human recombinant DGKζ 0.4 nM, 30 μM ATP, 20 μM DLG, 90 minute incubation. An outline of the steps:
as §1

What is called pIC50 is −log10 of the IC50, conventionally taken in molar units.

T1 sequence (P23743 whole entry): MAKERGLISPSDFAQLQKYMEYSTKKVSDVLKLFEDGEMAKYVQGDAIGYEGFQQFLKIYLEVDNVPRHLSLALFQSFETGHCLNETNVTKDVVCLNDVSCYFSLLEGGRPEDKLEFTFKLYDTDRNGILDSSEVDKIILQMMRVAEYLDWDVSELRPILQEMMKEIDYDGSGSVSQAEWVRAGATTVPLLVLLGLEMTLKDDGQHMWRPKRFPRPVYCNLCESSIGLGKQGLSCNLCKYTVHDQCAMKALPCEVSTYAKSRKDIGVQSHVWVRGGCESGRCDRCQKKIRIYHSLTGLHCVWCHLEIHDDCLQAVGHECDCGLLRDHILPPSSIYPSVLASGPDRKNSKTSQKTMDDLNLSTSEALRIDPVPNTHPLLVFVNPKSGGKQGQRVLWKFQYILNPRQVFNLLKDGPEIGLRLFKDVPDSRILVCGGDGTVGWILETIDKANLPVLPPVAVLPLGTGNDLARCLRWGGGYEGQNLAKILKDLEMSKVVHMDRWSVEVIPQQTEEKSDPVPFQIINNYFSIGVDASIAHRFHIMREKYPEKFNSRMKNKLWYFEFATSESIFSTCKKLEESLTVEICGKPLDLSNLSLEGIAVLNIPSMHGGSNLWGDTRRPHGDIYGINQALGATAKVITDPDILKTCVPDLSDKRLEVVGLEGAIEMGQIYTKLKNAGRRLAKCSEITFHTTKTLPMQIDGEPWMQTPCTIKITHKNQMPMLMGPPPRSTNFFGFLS
T2 sequence (Q13574 whole entry): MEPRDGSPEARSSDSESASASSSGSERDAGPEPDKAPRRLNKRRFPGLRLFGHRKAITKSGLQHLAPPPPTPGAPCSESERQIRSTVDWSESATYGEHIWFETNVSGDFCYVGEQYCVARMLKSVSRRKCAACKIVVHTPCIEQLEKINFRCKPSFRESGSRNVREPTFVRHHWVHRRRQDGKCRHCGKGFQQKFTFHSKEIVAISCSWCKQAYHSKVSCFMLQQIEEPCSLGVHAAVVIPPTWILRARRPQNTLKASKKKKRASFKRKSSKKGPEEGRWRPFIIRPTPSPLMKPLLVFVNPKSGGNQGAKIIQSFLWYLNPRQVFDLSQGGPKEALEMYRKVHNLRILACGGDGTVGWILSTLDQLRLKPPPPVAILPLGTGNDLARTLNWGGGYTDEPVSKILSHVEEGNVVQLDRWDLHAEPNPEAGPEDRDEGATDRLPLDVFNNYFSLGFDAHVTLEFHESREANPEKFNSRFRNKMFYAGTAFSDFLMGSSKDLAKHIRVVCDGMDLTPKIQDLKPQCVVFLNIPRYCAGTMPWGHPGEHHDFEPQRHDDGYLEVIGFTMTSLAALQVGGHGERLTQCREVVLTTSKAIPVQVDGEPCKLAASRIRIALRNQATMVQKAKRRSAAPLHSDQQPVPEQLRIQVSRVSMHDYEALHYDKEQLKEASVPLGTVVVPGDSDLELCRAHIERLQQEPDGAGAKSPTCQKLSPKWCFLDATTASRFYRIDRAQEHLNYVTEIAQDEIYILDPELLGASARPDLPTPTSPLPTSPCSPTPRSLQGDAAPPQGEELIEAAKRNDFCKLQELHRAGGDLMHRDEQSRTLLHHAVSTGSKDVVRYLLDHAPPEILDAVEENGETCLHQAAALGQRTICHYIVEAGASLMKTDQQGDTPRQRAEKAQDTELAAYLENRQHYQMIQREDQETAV

For the compound `CC[C@@H]1CN(c2nc3nncn3c3c2nc(C)n3C[C@@H]2CCCO2)[C@@H](C)CN1C(c1ccc(Cl)cc1)C1CC(F)(F)C1` (stereo partly drawn) [Example 78, 4-((2S,5R)-4-((4-Chlorophenyl)(3,3-difluorocyclobutyl)methyl)-5-ethyl-2-methylpiperazin-1-yl)-2-methyl-1-(((S)-tetrahydrofuran-2-yl)methyl)-1H-[1,2,4]triazolo[3,4-b]purine], the pIC50 on DGKα and on DGKζ was over 7.70 in each case.
As for `CC[C@H](c1ccc(Cl)cc1)N1C[C@H](C)N(c2nc3nncn3c3c2ncn3C[C@@H]2CCCO2)C[C@H]1C` [Example 58, 4-((2S,5R)-4-((R)-1-(4-chlorophenyl)propyl)-2,5-dimethylpiperazin-1-yl)-1-(((S)-tetrahydrofuran-2-yl)methyl)-1H-[1,2,4]triazolo[3,4-b]purine], the pIC50 at DGKα and at DGKζ was over 7.70 throughout.
For `C[C@@H]1CN(c2nc3nncn3c3c2ncn3C[C@@H]2CCCO2)[C@@H](C)CN1C(c1ccc(Cl)cc1)C1CC(F)(F)C1` (stereo partly drawn) [Example 32, 4-((2S,5R)-4-((4-Chlorophenyl)(3,3-difluorocyclobutyl)methyl)-2,5-dimethylpiperazin-1-yl)-1-(((S)-tetrahydrofuran-2-yl)methyl)-1H-[1,2,4]triazolo[3,4-b]purine], the pIC50 on DGKα and on DGKζ was over 7.70 each time.
On to `CC(C)[C@@H](c1ccc2cc(C(F)(F)F)ccc2n1)N1C[C@H](C)N(c2nc3nncn3c3c2ncn3C[C@@H]2CCCO2)C[C@H]1C` [Example 83, 4-((2S,5R)-2,5-Dimethyl-4-((S)-2-methyl-1-(6-(trifluoromethyl)quinolin-2-yl)propyl)piperazin-1-yl)-1-(((S)-tetrahydrofuran-2-yl)methyl)-1H-[1,2,4]triazolo[3,4-b]purine], for which the results for the pIC50 on DGKα and at DGKζ were 6.70 to 7.70 and over 7.70, respectively.
Turning to `Cc1nc2c(N3C[C@@H](C)N(C(c4ccc(Cl)cc4)[C@@H]4CC4(F)F)C[C@@H]3C)nc3nncn3c2n1C[C@@H]1CCCO1` (single isomer, unassigned) [Example 8], the pIC50 on DGKα and at DGKζ was over 7.70 in each case.
With `CC(c1ccc(C(F)(F)F)cc1)N1C[C@H](C)N(c2nc3nncn3c3c2ncn3C[C@@H]2CCCO2)C[C@H]1C` (stereo partly drawn) [Example 68, 4-((2S,5R)-2,5-Dimethyl-4-(1-(4-(trifluoromethyl)phenyl)ethyl)piperazin-1-yl)-1-(((S)-tetrahydrofuran-2-yl)methyl)-1H-[1,2,4]triazolo[3,4-b]purine], the pIC50 on DGKα and on DGKζ was over 7.70 each time.
Turning to `CC[C@@H]1CN(c2cc3nncn3c3c2nc(C)n3C[C@@H]2CCCO2)[C@@H](C)CN1C(c1ccc(Cl)cc1)C1CC(F)(F)C1` (single isomer, unassigned) [Example 52], the pIC50 at DGKα and on DGKζ was over 7.70 each time.
For the compound `C[C@@H]1CN(c2nc3nncn3c3c2ncn3C[C@@H]2CCCO2)[C@@H](C)CN1C(c1ccc(C(F)F)c(F)c1)C1CC(F)(F)C1` (stereo partly drawn) [Example 2, 4-((2S,5R)-4-((3,3-Difluorocyclobutyl)(4-(difluoromethyl)-3-fluorophenyl)methyl)-2,5-dimethylpiperazin-1-yl)-1-(((S)-tetrahydrofuran-2-yl)methyl)-1H-[1,2,4]triazolo[3,4-b]purine], the pIC50 at DGKα and at DGKζ was over 7.70 each time.
Turning to `Cc1nc2c(N3C[C@@H](C)N([C@@H](c4ccc(Cl)cc4)C(C)C)C[C@@H]3C)cc3nncn3c2n1C[C@@H]1CCCO1` [Example 66, 4-((2S,5R)-4-((R)-1-(4-chlorophenyl)-2-methylpropyl)-2,5-dimethylpiperazin-1-yl)-2-methyl-1-(((S)-tetrahydrofuran-2-yl)methyl)-1H-imidazo[4,5-e][1,2,4]triazolo[4,3-a]pyridine], the pIC50 at DGKα and on DGKζ was over 7.70 each time.
With `C[C@@H]1CN(c2cc3nncn3c3c2ncn3C[C@@H]2CCCO2)[C@@H](C)CN1C(c1ccc(Cl)cc1)C1CC(F)(F)C1` (single isomer, unassigned) [Example 61], the pIC50 at DGKα and at DGKζ was over 7.70 in each case.
`C[C@@H]1CN(c2nc3nncn3c3c2ncn3CC2(O)CCCC2)[C@@H](C)CN1C(c1ccc(Cl)cc1)C1CC(F)(F)C1` (stereo partly drawn) [Example 45, 1-((4-((2S,5R)-4-((4-Chlorophenyl)(3,3-difluorocyclobutyl)methyl)-2,5-dimethylpiperazin-1-yl)-1H-[1,2,4]triazolo[3,4-b]purin-1-yl)methyl)cyclopentan-1-ol]: the pIC50 at DGKα and at DGKζ was over 7.70 in each case.
Take `Cc1nc2c(N3C[C@@H](C)N(Cc4ccc(Cl)cc4F)C[C@@H]3C)nc3nncn3c2n1C[C@@H]1CCCO1` [Example 71, 4-((2S,5R)-4-(4-Chloro-2-fluorobenzyl)-2,5-dimethylpiperazin-1-yl)-2-methyl-1-(((S)-tetrahydrofuran-2-yl)methyl)-1H-[1,2,4]triazolo[3,4-b]purine]: the pIC50 on DGKα and at DGKζ was over 7.70 throughout.
Regarding `C[C@@H]1CN(c2nc3nncn3c3c2ncn3C[C@@H]2CCCO2)[C@@H](C)CN1C(c1ccc(C(F)(F)F)cc1)C1CC(F)(F)C1` (single isomer, unassigned) [Example 1], the pIC50 at DGKα and at DGKζ was over 7.70 throughout.
Consider `CC(C)CC(c1ccc(Cl)c(F)c1)N1C[C@H](C)N(c2nc3nncn3c3c2ncn3C[C@@H]2CCCO2)C[C@H]1C` (single isomer, unassigned) [Example 15], for which the pIC50 at DGKα and at DGKζ was over 7.70 each time.
In the case of `Cc1nc2c(N3C[C@H]4CC[C@@H](C3)N4C(c3ccc(C(F)(F)F)cc3)C3CC(F)(F)C3)nc3nncn3c2n1C[C@@H]1CCCO1` (stereo partly drawn) [Example 81, 4-((1R,5S)-8-((3,3-Difluorocyclobutyl)(4-(trifluoromethyl)phenyl)methyl)-3,8-diazabicyclo[3.2.1]octan-3-yl)-2-methyl-1-(((S)-tetrahydrofuran-2-yl)methyl)-1H-[1,2,4]triazolo[3,4-b]purine], the pIC50 on DGKα and on DGKζ was over 7.70 throughout.
Consider `CC(CC(c1ccc(Cl)cc1)N1C[C@H](C)N(c2nc3nncn3c3c2ncn3C[C@@H]2CCCO2)C[C@H]1C)C(F)(F)F` (single isomer, unassigned) [Example 12], for which the pIC50 at DGKα and at DGKζ was over 7.70 in each case.
Regarding `CC(c1ccc(Cl)c(F)c1)N1C[C@H](C)N(c2nc3nncn3c3c2ncn3C[C@@H]2CCCO2)C[C@H]1C` (stereo partly drawn) [Example 88, 4-((2S,5R)-4-(1-(4-Chloro-3-fluorophenyl)ethyl)-2,5-dimethylpiperazin-1-yl)-1-(((S)-tetrahydrofuran-2-yl)methyl)-1H-[1,2,4]triazolo[3,4-b]purine], the results for the pIC50 at DGKα and at DGKζ were 6.70 to 7.70 and over 7.70, respectively.
Taken in the same sequence, the figures for `C[C@@H]1CN(c2nc3nncn3c3c2ncn3C[C@@H]2CCCO2)[C@@H](C)CN1C(c1ccc(C(F)(F)F)cc1)[C@@H]1CC1(F)F` (single isomer, unassigned) [Example 13] were over 7.70 and over 7.70.
Taken in the same sequence, the figures for `CC[C@@H](c1ccc(C(F)(F)F)cc1)N1C[C@H](C)N(c2nc3nncn3c3c2nc(C)n3C[C@@H]2CCCO2)C[C@H]1C` [Example 89, 4-((2S,5R)-2,5-Dimethyl-4-((S)-1-(4-(trifluoromethyl)phenyl)propyl)piperazin-1-yl)-2-methyl-1-(((S)-tetrahydrofuran-2-yl)methyl)-1H-[1,2,4]triazolo[3,4-b]purine] were over 7.70 and over 7.70.
As to `Cc1nc2c(N3C[C@@H](C)N(C(C)c4ccc(C(F)(F)F)cc4)C[C@@H]3C)nc3nncn3c2n1C[C@@H]1CCCO1` (stereo partly drawn) [Example 67, 4-((2S,5R)-2,5-Dimethyl-4-(1-(4-(trifluoromethyl)phenyl)ethyl)piperazin-1-yl)-2-methyl-1-(((S)-tetrahydrofuran-2-yl)methyl)-1H-[1,2,4]triazolo[3,4-b]purine], the pIC50 on DGKα and on DGKζ was over 7.70 each time.
As to `C[C@@H]1CN(c2nc3nncn3c3c2ncn3C[C@@H]2CCCO2)[C@@H](C)CN1C(c1ccc(Cl)cc1)[C@H]1CC1(F)F` (single isomer, unassigned) [Example 7], the pIC50 at DGKα and at DGKζ was over 7.70 throughout.
As to `C[C@@H]1CN(c2nc3nncn3c3c2ncn3C[C@@H]2CCCO2)[C@@H](C)CN1[C@H](c1ccc(Cl)cc1)c1ccc(Cl)cn1` (single isomer, unassigned) [Example 22], the pIC50 at DGKα and on DGKζ was over 7.70 each time.
In the case of `COc1ccc(C(C(C)C)N2C[C@H](C)N(c3nc4nncn4c4c3nc(C)n4C[C@@H]3CCCO3)C[C@H]2C)cc1F` (stereo partly drawn) [Example 24, 4-((2S,5R)-4-(1-(3-fluoro-4-methoxyphenyl)-2-methylpropyl)-2,5-dimethylpiperazin-1-yl)-2-methyl-1-(((S)-tetrahydrofuran-2-yl)methyl)-1H-[1,2,4]triazolo[3,4-b]purine], the pIC50 at DGKα and on DGKζ was over 7.70 each time.
Take `Cc1nc2c(N3C[C@@H](C)N(Cc4ccc(Cl)c(F)c4)C[C@@H]3C)nc3nncn3c2n1C[C@@H]1CCCO1` [Example 76, 4-((2S,5R)-4-(4-Chloro-3-fluorobenzyl)-2,5-dimethylpiperazin-1-yl)-2-methyl-1-(((S)-tetrahydrofuran-2-yl)methyl)-1H-[1,2,4]triazolo[3,4-b]purine]: the pIC50 at DGKα and at DGKζ was over 7.70 in each case.
`Cc1nc2c(N3C[C@@H](C)N([C@H](c4ccc(Cl)cc4)[C@H]4CC4(F)F)C[C@@H]3C)nc3nncn3c2n1C[C@@H]1CCCO1` (single isomer, unassigned) [Example 55]: the negative logarithm of the IC50 (pIC50) at DGKα and on DGKζ was over 7.70 throughout.
For `Cc1nc2c(N3C[C@@H](C)N(C(c4ccc(Cl)c(F)c4)C(C)C)C[C@@H]3C)nc3nncn3c2n1C[C@@H]1CCCO1` (single isomer, unassigned) [Example 23], the pIC50 at DGKα and at DGKζ was over 7.70 in each case.
